What was measured:
[1] = target: T1, RARα (Homo sapiens, UniProt P10276); assay: ligand binding assay, RARα; conditions: for Ki: read-out: RAR Bind. Ki α; for Kd: Table 9 (Formula F), read-out: RAR α Kd
T1 sequence (P10276 1-462): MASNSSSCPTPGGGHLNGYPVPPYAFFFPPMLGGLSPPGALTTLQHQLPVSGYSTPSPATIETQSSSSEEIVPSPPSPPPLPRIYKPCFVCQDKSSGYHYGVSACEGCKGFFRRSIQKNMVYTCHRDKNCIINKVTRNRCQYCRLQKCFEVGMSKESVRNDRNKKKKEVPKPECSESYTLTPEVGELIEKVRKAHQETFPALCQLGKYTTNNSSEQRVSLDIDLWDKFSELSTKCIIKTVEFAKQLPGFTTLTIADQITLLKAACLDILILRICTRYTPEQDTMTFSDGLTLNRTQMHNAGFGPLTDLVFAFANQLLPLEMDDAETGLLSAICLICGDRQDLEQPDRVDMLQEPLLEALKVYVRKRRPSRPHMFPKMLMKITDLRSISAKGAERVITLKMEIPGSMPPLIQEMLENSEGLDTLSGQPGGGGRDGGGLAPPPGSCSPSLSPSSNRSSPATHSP
Excerpt: (§1) Specifically, one such assay is a chimeric receptor transactivation assay which tests for agonist-like activity in the R RAPE and RAR7 receptor subtypes, and which is based on work published by Feigner, P. L. and Holm, M (1989) Focus, 112 is described in detail in U.S. Pat. No. 5,455,265. The specification of U.S. Pat. No. 5,455,265 is hereby expressly incorporated by reference. A holoreceptor transactivation assay and a ligand binding assay which measure the antagonist/agonist like activity of the compounds of the invention, or their ability to bind to the several retinoid receptor subtypes, respectively, are described in published PCT Application No. WO WO93/11755 (particularly on pages 30-33 and 37-41) published on Jun. 24, 1993, the specification of which is also incorporated herein by reference. A detailed experimental procedure for holoreceptor transactivations has been described by Heyman et al. Cell 68, 397-406, (1992); Allegretto et al. J. Biol. Chem. 268, 26625-26633, and Mangelsdorf et al. The Retinoids: Biology, Chemistry and Medicine, pp 319-349, Raven Press Ltd., New York, which are expressly incorporated herein by reference. The results obtained in this assay are expressed in EC50 numbers, as they are also in the chimeric receptor transactivation assay. The results of the ligand binding assay are expressed in Ki numbers. (See Cheng et al. Biochemical Pharmacology Vol. 22 pp 3099-3108, expressly incorporated herein by reference.)
(§2) Generally speaking, in the tables disclosing the results of transactivation and binding assays the numbers in parentheses indicate efficacy as a percentage compared to the standard compound, (2E,4E,1′S,2′S)-3-methyl-5-[2′-methyl-2′-(5,5,8,8-tetramethyl-5,6,7,8-tetrahydro-naphthalen-2-yl)cyclopropyl]-penta-2,4-dienoic acid and the other numbers indicate the measured EC50 and K; in nanomolar concentration.

[2] = target: T2, RARβ (Homo sapiens, UniProt P10826); assay: ligand binding assay, RARβ; conditions: for Ki: read-out: RAR Bind. Ki β; for Kd: Table 9 (Formula F), read-out: RAR β Kd
T2 sequence (P10826 1-455): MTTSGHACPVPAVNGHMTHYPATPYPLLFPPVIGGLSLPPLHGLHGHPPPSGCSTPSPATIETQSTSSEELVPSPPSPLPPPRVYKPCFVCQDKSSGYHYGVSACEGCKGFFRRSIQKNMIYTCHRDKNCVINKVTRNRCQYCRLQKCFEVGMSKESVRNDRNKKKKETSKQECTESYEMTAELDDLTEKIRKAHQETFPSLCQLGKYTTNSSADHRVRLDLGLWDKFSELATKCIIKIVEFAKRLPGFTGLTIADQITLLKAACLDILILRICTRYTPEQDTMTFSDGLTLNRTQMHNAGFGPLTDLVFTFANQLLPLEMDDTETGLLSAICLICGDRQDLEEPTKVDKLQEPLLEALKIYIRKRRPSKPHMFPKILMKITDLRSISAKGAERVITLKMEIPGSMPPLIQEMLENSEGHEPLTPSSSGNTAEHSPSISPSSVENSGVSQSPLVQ
Excerpt: as §1, §2

[3] = target: T3, RARγ (Homo sapiens, UniProt P13631); assay: ligand binding assay, RARγ; conditions: for Ki: read-out: RAR Bind. Ki γ; for Kd: Table 9 (Formula F), read-out: RAR γ Kd
T3 sequence (P13631 1-454): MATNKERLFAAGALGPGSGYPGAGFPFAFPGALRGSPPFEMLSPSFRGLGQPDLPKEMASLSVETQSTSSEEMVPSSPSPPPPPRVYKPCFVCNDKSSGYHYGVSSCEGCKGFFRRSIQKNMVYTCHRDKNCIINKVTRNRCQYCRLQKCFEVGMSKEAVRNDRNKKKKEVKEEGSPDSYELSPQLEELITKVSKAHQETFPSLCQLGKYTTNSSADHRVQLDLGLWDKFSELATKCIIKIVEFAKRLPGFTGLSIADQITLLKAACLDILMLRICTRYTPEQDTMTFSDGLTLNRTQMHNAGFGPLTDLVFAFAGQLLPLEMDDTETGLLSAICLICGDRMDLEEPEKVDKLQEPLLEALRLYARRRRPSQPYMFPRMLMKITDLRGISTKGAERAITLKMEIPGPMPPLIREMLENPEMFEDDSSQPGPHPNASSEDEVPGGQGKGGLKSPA
Excerpt: as §1, §2

Compound	Ki [1] [nM]	Ki [2] [nM]	Ki [3] [nM]	Kd [1] [nM]	Kd [2] [nM]	Kd [3] [nM]
COc1c(\C(C)=C(F)/C=C/C(C)=C/C(=O)O)cc2c(c1Cl)OC(C)(C)C=C2C(C)C [Compound 170, 7-(8-Chloro-4-isopropyl-7-methoxy-2,2-dimethyl-2H-chromen-6-yl)-6-fluoro-3-methyl-octa-2E,4E,6E-trienoic acid]	3400	2300	5300			
CC/C(=C(F)/C=C/C(C)=C/C(=O)O)c1cc2c(c(Cl)c1OC)OC(C)(C)C=C2C(C)C [Compound 171, 7-(8-Chloro-4-isopropyl-7-methoxy-2,2-dimethyl-2H-chromen-6-yl)-6-fluoro-3-methyl-nona-2E,4E,6E-trienoic acid]	47	381	4900			
CCOc1c(\C(C)=C(F)/C=C/C(C)=C/C(=O)O)cc2c(c1Cl)OC(C)(C)C=C2C(C)C [Compound 172, 7-(8-Chloro-4-isopropyl-7-ethoxy-2,2-dimethyl-2H-chromen-6-yl)-6-fluoro-3-methyl-octa-2E,4E,6E-trienoic acid]	404	442	1400			
CCOc1c(\C(CC)=C(F)/C=C/C(C)=C/C(=O)O)cc2c(c1Cl)OC(C)(C)C=C2C(C)C [Compound 173]	102	431	2400			
CC(/C=C/C(F)=C(/C)c1cc2c(c(Cl)c1OC(C)C)OC(C)(C)C=C2C(C)C)=C\C(=O)O [Compound 174]	532	1300	3400			
CCOc1cc2c(cc1\C(=C/C=C/C(C)=C/C(=O)O)CC)C(C)=CCC2(C)C [Compound A-16, 7-(3-Ethoxy-5,5,8-trimethyl-5,6-dihydronaphthalen-2-yl)-3-methyl-nona-2E,4E,6Z-trienoic acid]	578	610	3800			
CCOc1cc2c(cc1\C(C)=C/C=C/C(C)=C/C(=O)O)C(C(C)(C)C)=CCC2(C)C [Compound A-17, 7-(8-tert-Butyl-3-ethyloxy-5,5-dimethyl-5,6-dihydronaphthalen-2-yl)-3-methyl-octa-2E,4E,6Z-trienoic acid]	861	401	1900			
CCOc1cc2c(cc1\C(=C/C=C/C(C)=C/C(=O)O)CC)C(C(C)(C)C)=CCC2(C)C [Compound A-18, 7-(8-tert-butyl-3-ethyoxy-5,5-dimethyl-5,6-dihydronaphthalen-2-yl)-3-methyl-nona-2E,4E,6Z-trienoic acid]	442	137	537			
CCOc1cc2c(cc1\C(C)=C(F)/C=C/C(C)=C/C(=O)O)C=CCC2(C)C [Compound A-76, (2E,4E,6E)-7-(3-Ethoxy-5,5-dimethyl-5,6-dihydro-naphthalen-2-yl)-6-fluoro-3-methyl-octa-2,4.6-trienoic acid]	1600	2600	9200			
CCOc1cc2c(cc1\C(CC)=C(F)/C=C/C(C)=C/C(=O)O)C(CC)=CCC2(C)C [Compound A-78, (2E,4E,6E)-7-(3-Ethoxy-8-ethyl-5,5-dimethyl-5,6-dihydro-naphthalen-2-yl)-6-fluoro-3-methyl-nona-2,4,6-trienoic acid]	180	477	2200			
CCCOc1cc2c(cc1\C(C)=C(F)/C=C/C(C)=C/C(=O)O)C(C(C)C)=CCC2(C)C [Compound A-80]	841	552	6400			
CC(/C=C/C(F)=C(/C)c1cc2c(cc1OCC1CC1)C(C)(C)CC=C2C(C)C)=C\C(=O)O [Compound A-81, (2E,4E,6E)-6-Fluoro-3-(4-dimethyl-6-(cyclopropyl)methoxy-1-isopropyl-3,4-dihydronaphthalen-7-yl)-3-methyl-2,4.6-octa-trienoic acid]	592	927	5600			
CCOc1cc2c(cc1\C(C)=C(F)/C=C/C(C)=C/C(=O)O)C(C(C)(C)C)=CCC2(C)C [Compound A-82, (2E,4E,6E)-6-Fluoro-3-(4,4-dimethyl-6-ethoxy-1-tert-butyl-3,4 dihydronaphthalen-7-yl)-3-methyl-2,4,6-octa-trienoic acid]	387	400	1400			
CCOc1cc2c(cc1\C(CC)=C(F)/C=C/C(C)=C/C(=O)O)C(C(C)(C)C)=CCC2(C)C [Compound A-83, (2E,4E,6E)-7-(8-tert-Butyl-3-ethoxy-5,5-dimethyl-5,6-dihydronaphthalen-2-yl)-6-fluoro-3-methyl-nona-2,4,6-trienoic acid]	394	261	698			
CCCOc1cc2c(cc1\C(C)=C(F)/C=C/C(C)=C/C(=O)O)C(C(C)(C)C)=CCC2(C)C [Compound A-84, (2E,4E,6E)-6-Fluoro-3-(4,$dimethyl-6-n-propoxy-1-tert-butyl-3,4-dihydronaphthalen-7-yl)-3-methyl-2,4,6-octatrienoic acid]	1100	620	274			
CCOc1c(\C(C)=C(F)/C=C/C(C)=C/C(=O)O)cc2c(c1Br)C(C)(C)CC=C2C(C)C [Compound A-169, (2E,4E,6E)-7-(4-Bromo-3-ethoxy-8-isopropyl-5,5-dimethyl-5,6-dihydro-naphthalen-2-yl)-6-fluoro-3-methyl-octa-2.4,6-trienoic acid]				70	252	1000
CCOc1c(\C(CC)=C(F)/C=C/C(C)=C/C(=O)O)cc2c(c1Br)C(C)(C)CC=C2C(C)C [Compound A-170, (2E,4E,6E)-7-(4-Bromo-3-ethoxy-8-isopropyl-5,5-dimethyl-5,6-dihydro-naphthalen-2-yl)-6-fluoro-3-methyl-nona-2,4,6-trienoic acid]				12	56	507
CCOc1c(\C(=C(F)/C=C/C(C)=C/C(=O)O)C(C)C)cc2c(c1Br)C(C)(C)CC=C2C(C)C [Compound A-171, (2E,4E,6E)-7-(4-Bromo-3-ethoxy-8-isopropyl-5,5-dimethyl-5,6-dihydro-naphthalen-2-yl)-6-fluoro-3.8-dimethyl-nona-2.4,6-trienoic acid]				29	37	272
CC(/C=C/C(F)=C(/C)c1cc2c(c(Br)c1OC(C)C)C(C)(C)CC=C2C(C)C)=C\C(=O)O [Compound A-172, (2E,4E,6E)-7-(4-Bromo-3-isopropoxy-8-isopropyl-5,5-dimethyl-5,6-dihydro-naphthalen-2-yl)-6-fluoro-3-methyl-octa-2,4,6-trienoic acid]				141	212	834

From patent US6887896B1, “7-[(7-Alkoxy)-chrom-3-en-6-yl]-heptatrienoic acid and 7-[(3-alkoxy)-5,6-dihydronaphthalen-2-yl]-heptatrienoic acid derivatives having serum glucose reducing activity” (Allergan, Inc., priority 2003, dated 2005)
